Assay results taken from patent publication US8569281B2, “Compounds and their administration for treating a neurodegenerative disease as well as a method for identifying a compound capable of inhibiting a kinase, such as LRRK” (Medical Research Council Technology, priority 2010, dated 2013).

These compounds were tested against LRRK2 (Homo sapiens (Human), UniProt Q5S007) (assay: In Vitro LRRK2 Assay (LabChip 3000, fluorescently-labeled peptide substrate)). Details: ATP 130 μM, substrate 1 μM, 2 hours, ambient temperature; LRRK2 variant not given; read-out: Ki (μM), affinity values for LRRK2.
LRRK2, sequence (Q5S007 whole entry G2019S): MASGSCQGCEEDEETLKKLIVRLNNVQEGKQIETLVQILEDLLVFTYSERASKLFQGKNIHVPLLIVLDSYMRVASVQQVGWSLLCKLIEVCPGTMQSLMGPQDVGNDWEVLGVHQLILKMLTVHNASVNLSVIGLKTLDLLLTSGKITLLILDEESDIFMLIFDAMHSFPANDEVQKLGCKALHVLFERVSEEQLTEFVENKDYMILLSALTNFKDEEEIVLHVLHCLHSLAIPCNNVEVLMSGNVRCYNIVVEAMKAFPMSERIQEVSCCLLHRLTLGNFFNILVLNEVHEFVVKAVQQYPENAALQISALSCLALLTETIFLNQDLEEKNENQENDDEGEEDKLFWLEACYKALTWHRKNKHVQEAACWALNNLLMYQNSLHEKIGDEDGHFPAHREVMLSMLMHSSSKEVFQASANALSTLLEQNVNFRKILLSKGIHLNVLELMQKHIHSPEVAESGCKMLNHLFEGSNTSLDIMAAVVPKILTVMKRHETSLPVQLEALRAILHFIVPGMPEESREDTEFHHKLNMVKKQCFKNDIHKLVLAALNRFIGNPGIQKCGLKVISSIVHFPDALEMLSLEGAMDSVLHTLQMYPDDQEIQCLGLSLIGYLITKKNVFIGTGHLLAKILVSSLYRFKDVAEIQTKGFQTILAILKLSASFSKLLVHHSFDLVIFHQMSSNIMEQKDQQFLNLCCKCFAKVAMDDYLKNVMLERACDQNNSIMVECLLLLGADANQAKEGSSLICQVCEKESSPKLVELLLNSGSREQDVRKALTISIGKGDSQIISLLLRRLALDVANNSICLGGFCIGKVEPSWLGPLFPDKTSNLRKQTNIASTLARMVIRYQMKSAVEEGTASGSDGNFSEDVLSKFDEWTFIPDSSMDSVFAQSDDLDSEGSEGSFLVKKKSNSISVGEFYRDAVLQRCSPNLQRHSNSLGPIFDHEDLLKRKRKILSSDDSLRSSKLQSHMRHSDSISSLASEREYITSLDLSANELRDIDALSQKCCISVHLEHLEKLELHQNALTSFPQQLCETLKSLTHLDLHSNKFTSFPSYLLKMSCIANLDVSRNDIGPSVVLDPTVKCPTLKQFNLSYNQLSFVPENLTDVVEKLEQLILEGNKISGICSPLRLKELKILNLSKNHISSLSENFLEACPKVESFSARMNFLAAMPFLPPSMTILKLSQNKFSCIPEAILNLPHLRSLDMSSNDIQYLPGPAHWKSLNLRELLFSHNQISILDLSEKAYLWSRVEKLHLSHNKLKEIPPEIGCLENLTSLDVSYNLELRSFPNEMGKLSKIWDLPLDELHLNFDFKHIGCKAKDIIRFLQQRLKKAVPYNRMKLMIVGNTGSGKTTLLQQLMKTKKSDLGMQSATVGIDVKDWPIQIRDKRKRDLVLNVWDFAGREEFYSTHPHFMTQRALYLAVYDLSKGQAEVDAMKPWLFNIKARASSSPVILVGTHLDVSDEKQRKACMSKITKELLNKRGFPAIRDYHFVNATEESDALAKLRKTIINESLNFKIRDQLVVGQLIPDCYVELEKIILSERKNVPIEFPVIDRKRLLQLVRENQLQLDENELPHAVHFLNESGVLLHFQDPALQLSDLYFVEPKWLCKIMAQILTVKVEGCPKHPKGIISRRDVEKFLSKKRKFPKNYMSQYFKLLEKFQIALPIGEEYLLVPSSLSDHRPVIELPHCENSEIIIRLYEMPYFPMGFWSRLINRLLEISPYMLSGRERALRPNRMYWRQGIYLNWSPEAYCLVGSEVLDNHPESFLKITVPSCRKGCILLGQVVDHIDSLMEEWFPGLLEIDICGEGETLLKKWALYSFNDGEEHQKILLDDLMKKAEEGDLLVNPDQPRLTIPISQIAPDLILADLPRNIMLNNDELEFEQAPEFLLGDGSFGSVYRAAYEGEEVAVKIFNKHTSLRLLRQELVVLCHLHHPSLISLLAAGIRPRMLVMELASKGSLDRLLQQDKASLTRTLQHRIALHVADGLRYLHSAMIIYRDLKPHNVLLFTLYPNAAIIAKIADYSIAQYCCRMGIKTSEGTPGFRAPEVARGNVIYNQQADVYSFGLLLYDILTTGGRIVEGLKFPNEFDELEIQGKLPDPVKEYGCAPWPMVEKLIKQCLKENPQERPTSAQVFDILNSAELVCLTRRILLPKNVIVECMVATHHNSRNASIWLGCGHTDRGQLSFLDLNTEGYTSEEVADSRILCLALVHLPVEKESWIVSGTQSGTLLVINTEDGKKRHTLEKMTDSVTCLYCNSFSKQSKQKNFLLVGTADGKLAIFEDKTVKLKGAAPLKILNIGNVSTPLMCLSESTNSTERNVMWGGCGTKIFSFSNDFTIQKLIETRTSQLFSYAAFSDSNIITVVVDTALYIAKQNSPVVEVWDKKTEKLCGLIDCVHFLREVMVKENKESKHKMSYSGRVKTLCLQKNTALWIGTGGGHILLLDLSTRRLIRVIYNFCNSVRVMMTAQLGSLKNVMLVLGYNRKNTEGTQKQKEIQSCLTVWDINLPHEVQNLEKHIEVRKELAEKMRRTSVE
Assay type: biochemical
Procedure: This assay was used to determine a compound's potency in inhibiting activity of LRRK2 by determining, Kiapp, IC50, or percent inhibition values. In a polypropylene plate, LRRK2, fluorescently-labeled peptide substrate, ATP and test compound were incubated together. Using a LabChip 3000 (Caliper Life Sciences), after the reaction the substrate was separated by capillary electrophoresis into two populations: phosphorylated and unphosphorylated. The relative amounts of each were quantitated by fluorescence intensity. LRRK2 Ki was determined according to the equation: Y=V0*(1−((x+Ki*(1+S/Km)+Et)/(2*Et)−(((x+Ki*(1+S/Km)+Et)^2−(4*Et*x))^0.5)/(2*Et))).
Ki values in Table 4 and elsewhere herein are shown in μM.
Assay conditions and materials used were as follows:
Compound Plate Preparation:
For serial dilutions, 34.6 μl DMSO was added to columns 3-24.
Total and Blank Preparation:
In Complete Reaction Buffer, substrate was diluted to 4 μM. Equal volumes of Complete Reaction Buffer and 4 μM substrate were combined to obtain the blank. Equal volumes of Complete Reaction Buffer and 4 μM substrate were combined and to the combined solution was added 2× final LRRK2 concentration.
To a 50 μl polypropylene plate, 5 μl/well buffer/substrate was added by hand to Blank wells. A Biomek FX was used to start the kinase reaction (“PLK SAR 23 ATP”). The following were added to the appropriate wells: • 2 μl compound+23 μl ATP; • 5 μl/well compound/ATP in Assay Plate; • 5 μl/well kinase/substrate in Assay Plate;
The plate was incubated for 2 hours in the dark. Biomek FX was used to stop the kinase reaction (“PLK Stop”), and 10 μl/well Stop solution was added to the Assay Plate. Results were read on the LabChip 3000.
The LabChip 3000 was run using the job “LRRK2 IC50” with the following job settings: • Pressure: −1.4 psi • Downstream voltage: −500 V • Upstream voltage: −2350 V • Post sample buffer sip time: 75 seconds • Post dye buffer sip time: 75 seconds • Final delay time: 200 seconds Parkinson's Disease Animal Model
In the case of `COc1nccc2[nH]nc(-c3ccnc(-c4cnn(C)c4)c3)c12` [Example 121, 4-Methoxy-3-(2-(1-methyl-1H-pyrazol-4-yl)pyridin-4-yl)-1H-pyrazolo[4,3-c]pyridine], the Ki is reported as 0.042 µM. `c1cc2[nH]nc(-c3ccc4ncn(C5CCOC5)c4c3)c2c(OC2CCOCC2)n1` (stereo not drawn) [Example 128, 4-(Tetrahydro-2H-pyran-4-yloxy)-3-(1-(tetrahydrofuran-3-yl)-1H-benzo[d]imidazol-6-yl)-1H-pyrazolo[4,3-c]pyridine] showed a Ki of 0.034 µM. Compound `c1cc2[nH]nc(-c3ccc4c(c3)ncn4C3CCOC3)c2c(OC2CCOCC2)n1` (stereo not drawn) [Example 129, 4-(tetrahydro-2H-pyran-4-yloxy)-3-(1-(tetrahydrofuran-3-yl)-1H-benzo[d]imidazol-5-yl)-1H-pyrazolo[4,3-c]pyridine] has a Ki of 0.01 µM. `Clc1ccccc1C#Cc1[nH]nc2ccnc(OC3CCOCC3)c12` [Example 132, 3-((2-Chlorophenyl)ethynyl)-4-(tetrahydro-2H-pyran-4-yloxy)-1H-pyrazolo[4,3-c]pyridine] was tested, and the Ki was 0.005 µM. `O=C(c1ccc(-c2[nH]nc3ccnc(OC4CCOCC4)c23)cc1)N1CCOCC1` [Example 133, Morpholino(4-(4-(tetrahydro-2H-pyran-4-yloxy)-1H-pyrazolo[4,3-c]pyridin-3-yl)phenyl)methanone] was tested, and the Ki was 0.076 µM. With `CN(C)C(=O)c1ccc(-c2[nH]nc3ccnc(OC4CCOCC4)c23)cc1F` [Example 135, 2-Fluoro-N,N-dimethyl-4-(4-(tetrahydro-2H-pyran-4-yloxy)-1H-pyrazolo[4,3-c]pyridin-3-yl)benzamide] the Ki was 0.104 µM. Work on `c1cc2[nH]nc(-c3ccc4cn[nH]c4c3)c2c(OC2CCOCC2)n1` [Example 138, 3-(1H-Indazol-6-yl)-4-(tetrahydro-2H-pyran-4-yloxy)-1H-pyrazolo[4,3-c]pyridine] yielded a Ki of 0.013 µM. Compound `c1cc2[nH]nc(-c3ccc4nc[nH]c4c3)c2c(OC2CCOCC2)n1` [Example 139, 3-(1H-Benzo[d]imidazol-6-yl)-4-(tetrahydro-2H-pyran-4-yloxy)-1H-pyrazolo[4,3-c]pyridine] has a Ki of 0.014 µM. Compound `Cn1ncc2cc(-c3n[nH]c4ccnc(OC5CCOCC5)c34)ccc21` [Example 140, 3-(1-Methyl-1H-indazol-5-yl)-4-(tetrahydro-2H-pyran-4-yloxy)-1H-pyrazolo[4,3-c]pyridine] has a Ki of 0.013 µM. `CC(C)n1cc2ccc(-c3n[nH]c4ccnc(OC5CCOCC5)c34)cc2n1` [Example 143, 3-(2-isopropyl-2H-indazol-6-yl)-4-(tetrahydro-2H-pyran-4-yloxy)-1H-pyrazolo[4,3-c]pyridine] showed a Ki of 0.032 µM. With `Cn1cnc2cc(-c3n[nH]c4ccnc(OC5CCOCC5)c34)ccc21` [Example 145, 3-(1-methyl-1H-benzo[d]imidazol-5-yl)-4-(tetrahydro-2H-pyran-4-yloxy)-1H-pyrazolo[4,3-c]pyridine] the Ki was 0.036 µM. For `c1cc2[nH]nc(-c3cnn([C@@H]4CCOC4)c3)c2c(OC2CCOCC2)n1` [Example 146, (R)-4-(Tetrahydro-2H-pyran-4-yloxy)-3-(1-(tetrahydrofuran-3-yl)-1H-pyrazol-4-yl)-1H-pyrazolo[4,3-c]pyridine], the Ki was 0.005 µM. `c1cc2[nH]nc(-c3cnn([C@H]4CCOC4)c3)c2c(OC2CCOCC2)n1` [Example 147, (S)-4-(tetrahydro-2H-pyran-4-yloxy)-3-(1-(tetrahydrofuran-3-yl)-1H-pyrazol-4-yl)-1H-pyrazolo[4,3-c]pyridine] gave a Ki of 0.003 µM. For `Cc1[nH]nc2cc(C3CC3)nc(OC3CCCCC3)c12` [Example 148, 4-(Cyclohexyloxy)-6-cyclopropyl-3-methyl-1H-pyrazolo[4,3-c]pyridine], the Ki was 0.271 µM. With `c1ccc2ncc(-c3n[nH]c4ccnc(OC5CCOCC5)c34)cc2c1` [Example 150, 3-(4-(Tetrahydro-2H-pyran-4-yloxy)-1H-pyrazolo[4,3-c]pyridin-3-yl)quinoline] the Ki was 0.012 µM. For `N#CCc1cccc(-c2[nH]nc3ccnc(OC4CCOCC4)c23)c1` [Example 151, 2-(3-(4-(Tetrahydro-2H-pyran-4-yloxy)-1H-pyrazolo[4,3-c]pyridin-3-yl)phenyl)acetonitrile], the Ki was 0.017 µM. Compound `CN(C)c1cccc(-c2[nH]nc3ccnc(OC4CCOCC4)c23)c1` [Example 153, N,N-Dimethyl-3-(4-(tetrahydro-2H-pyran-4-yloxy)-1H-pyrazolo[4,3-c]pyridin-3-yl)aniline] has a Ki of 0.05 µM. `CC(C)NC(=O)c1cccc(-c2[nH]nc3ccnc(OC4CCOCC4)c23)c1` [Example 154, N-Isopropyl-3-(4-(tetrahydro-2H-pyran-4-yloxy)-1H-pyrazolo[4,3-c]pyridin-3-yl)benzamide] gave a Ki of 0.0784 µM. With `O=C(NC1CC1)c1cccc(-c2[nH]nc3ccnc(OC4CCOCC4)c23)c1` [Example 155, N-Cyclopropyl-3-(4-(tetrahydro-2H-pyran-4-yloxy)-1H-pyrazolo[4,3-c]pyridin-3-yl)benzamide] the Ki was 0.027 µM. Compound `N#Cc1cncc(-c2n[nH]c3ccnc(OC4CCOCC4)c23)c1` [Example 156] has a Ki of 0.172 µM. In the case of `CN1CCc2c(-c3n[nH]c4ccnc(OC5CCOCC5)c34)cccc21` [Example 157, 3-(1-Methylindolin-4-yl)-4-(tetrahydro-2H-pyran-4-yloxy)-1H-pyrazolo[4,3-c]pyridine], the Ki is reported as 0.495 µM. `c1cc(-c2n[nH]c3ccnc(OC4CCOCC4)c23)c2cc[nH]c2c1` [Example 158, 3-(1H-Indol-4-yl)-4-(tetrahydro-2H-pyran-4-yloxy)-1H-pyrazolo[4,3-c]pyridine] was tested, and the Ki was 0.448 µM. `CNC(=O)c1cccc(-c2n[nH]c3ccnc(OC4CCOCC4)c23)c1` [Example 160, N-Methyl-3-(4-(tetrahydro-2H-pyran-4-yloxy)-1H-pyrazolo[4,3-c]pyridin-3-yl)benzamide] gave a Ki of 0.025 µM. `c1cc(CN2CCOCC2)cc(-c2[nH]nc3ccnc(OC4CCOCC4)c23)c1` [Example 161, 4-(3-(4-(Tetrahydro-2H-pyran-4-yloxy)-1H-pyrazolo[4,3-c]pyridin-3-yl)benzyl)morpholine] showed a Ki of 0.107 µM. `COc1cc(Nc2[nH]nc3ccnc(OC4CCOCC4)c23)ccn1` [Example 162, N-(2-methoxypyridin-4-yl)-4-(tetrahydro-2H-pyran-4-yloxy)-1H-pyrazolo[4,3-c]pyridin-3-amine] showed a Ki of 0.04 µM. Work on `c1cc(Nc2[nH]nc3ccnc(OC4CCOCC4)c23)ccn1` [Example 163, N-(Pyridin-4-yl)-4-(tetrahydro-2H-pyran-4-yloxy)-1H-pyrazolo[4,3-c]pyridin-3-amine] yielded a Ki of 0.165 µM. In the case of `CC(C)n1cc(Nc2[nH]nc3ccnc(OC4CCOCC4)c23)cn1` [Example 164, N-(1-Isopropyl-1H-pyrazol-4-yl)-4-(tetrahydro-2H-pyran-4-yloxy)-1H-pyrazolo[4,3-c]pyridin-3-amine], the Ki is reported as 0.03 µM. `CS(=O)(=O)c1cccc(-c2[nH]nc3ccnc(OC4CCOCC4)c23)c1` [Example 165, 3-(3-(Methylsulfonyl)phenyl)-4-(tetrahydro-2H-pyran-4-yloxy)-1H-pyrazolo[4,3-c]pyridine] gave a Ki of 0.029 µM. Compound `COc1nccc2n[nH]c(-c3cccc(S(C)(=O)=O)c3)c12` [Example 167, 4-Methoxy-3-(3-(methylsulfonyl)phenyl)-1H-pyrazolo[4,3-c]pyridine] has a Ki of 0.045 µM. `CC(C)c1nc(-c2n[nH]c3ccnc(NC4CCOCC4)c23)n[nH]1` [Example 168, 3-(5-Isopropyl-4H-1,2,4-triazol-3-yl)-N-(tetrahydro-2H-pyran-4-yl)-1H-pyrazolo[4,3-c]pyridin-4-amine] showed a Ki of 0.007 µM. With `CNC(=O)c1cccc(-c2[nH]nc3cc(C)nc(OC4CCOCC4)c23)c1` [Example 171, N-methyl-3-(6-methyl-4-(tetrahydro-2H-pyran-4-yloxy)-1H-pyrazolo[4,3-c]pyridin-3-yl)benzamide] the Ki was 0.154 µM. Work on `Cc1cc2[nH]nc(-c3ccnc(N4CCOCC4)c3)c2c(OC2CCOCC2)n1` [Example 172, 4-(4-(6-methyl-4-(tetrahydro-2H-pyran-4-yloxy)-1H-pyrazolo[4,3-c]pyridin-3-yl)pyridin-2-yl)morpholine] yielded a Ki of 0.035 µM. Compound `COc1nccc2n[nH]c(-c3ccc(S(C)(=O)=O)cc3)c12` [Example 173, 4-methoxy-3-(4-(methylsulfonyl)phenyl)-1H-pyrazolo[4,3-c] pyridine] has a Ki of 0.09 µM. In the case of `N#Cc1cc(-c2n[nH]c3ccnc(OC4CCOCC4)c23)ccn1` [Example 174, 4-(4-(tetrahydro-2H-pyran-4-yloxy)-1H-pyrazolo[4,3-c]pyridin-3-yl)picolinonitrile], the Ki is reported as 0.13 µM. `CC(Oc1nccc2[nH]nc(-c3ccnc(N4CCOCC4)c3)c12)C(F)(F)F` (stereo not drawn) [Example 177, 4-(4-(4-(1,1,1-trifluoropropan-2-yloxy)-1H-pyrazolo[4,3-c]pyridin-3-yl)pyridin-2-yl)morpholine] showed a Ki of 0.016 µM. With `COCCOc1nccc2[nH]nc(-c3ccnc(N4CCOCC4)c3)c12` [Example 178, 4-(4-(4-(2-methoxyethoxy)-1H-pyrazolo[4,3-c]pyridin-3-yl)pyridin-2-yl) morpholine] the Ki was 0.023 µM.
